Assay type in all cases: biochemical
Experiment [1] has as its target T1, recombinant human MAO-A (Homo sapiens, UniProt P21397).
T1 construct: purchased BD Biosciences (Bedford, MA, USA); host or cells: baculovirus (Autographa californica) infected insect cells (BTI-TN-5B1-4)
T1 sequence (P21397 1-527): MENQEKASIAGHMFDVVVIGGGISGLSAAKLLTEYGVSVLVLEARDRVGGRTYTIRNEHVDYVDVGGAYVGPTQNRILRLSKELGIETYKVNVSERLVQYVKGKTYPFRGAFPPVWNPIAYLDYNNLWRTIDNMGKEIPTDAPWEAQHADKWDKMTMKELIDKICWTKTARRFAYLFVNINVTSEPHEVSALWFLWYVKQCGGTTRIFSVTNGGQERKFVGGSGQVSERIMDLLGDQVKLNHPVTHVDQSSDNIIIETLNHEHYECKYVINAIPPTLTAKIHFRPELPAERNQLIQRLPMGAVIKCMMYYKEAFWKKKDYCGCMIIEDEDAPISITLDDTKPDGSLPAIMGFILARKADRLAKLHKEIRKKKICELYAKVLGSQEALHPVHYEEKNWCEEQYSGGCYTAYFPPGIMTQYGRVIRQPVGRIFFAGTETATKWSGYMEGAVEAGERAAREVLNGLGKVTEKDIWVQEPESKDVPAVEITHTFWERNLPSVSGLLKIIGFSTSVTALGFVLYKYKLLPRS
Kind of experiment: Fluorometric kynuramine deamination assay, MAO-A inhibition (IC50). How it is done: (§1) Pure recombinant human monoamine oxidases (MAO-A and MAO-B) enzymes overexpressed in baculovirus (Autographa californica) infected insect cells (BTI-TN-5B1-4) were purchased from BD Biosciences, (Bedford, MA, USA).
(§2) Stock solutions of the test compounds/extracts were prepared in DMSO and diluted further in 0.1 M potassium phosphate buffer (pH 7.4) to obtain the desired concentrations. MAO-A and MAO-B activities were determined by fluorometric kynuramine deamination assay set up in 384-well solid white flat-bottom plates. MAO-A and MAO-B inhibition activities (IC50 values) were determined using fixed concentration of the substrate kynuramine and varying concentrations of the test compounds or extracts. The enzyme reactions were carried out in 0.1 M potassium phosphate buffer (pH-7.4). […] The reaction mixtures with buffer/substrate/inhibitor were preincubated for 10 minutes at 37°C, followed by addition of MAO-A and MAO-B to initiate the reaction. The solid white microplates were incubated for 20 minutes at 37°C and the enzymatic reaction was stopped by addition of 28 µL of 2 N NaOH to each well. The deaminated product of kynuramine, which spontaneously cyclizes to 4-hydroxyquinoline, was measured fluorometrically at 320 nm excitation and 380 nm emission wavelengths with a plate reader (SpectraMax M5, Molecular Devices, Sunnyvale, CA, USA). The IC50 values were computed by XL-Fit® from the dose-response inhibition curves.

Experiment [2] concerns the target T2, recombinant human MAO-B (Homo sapiens, UniProt P27338).
T2 construct: purchased BD Biosciences (Bedford, MA, USA); host or cells: baculovirus (Autographa californica) infected insect cells (BTI-TN-5B1-4)
T2 sequence (P27338 1-520): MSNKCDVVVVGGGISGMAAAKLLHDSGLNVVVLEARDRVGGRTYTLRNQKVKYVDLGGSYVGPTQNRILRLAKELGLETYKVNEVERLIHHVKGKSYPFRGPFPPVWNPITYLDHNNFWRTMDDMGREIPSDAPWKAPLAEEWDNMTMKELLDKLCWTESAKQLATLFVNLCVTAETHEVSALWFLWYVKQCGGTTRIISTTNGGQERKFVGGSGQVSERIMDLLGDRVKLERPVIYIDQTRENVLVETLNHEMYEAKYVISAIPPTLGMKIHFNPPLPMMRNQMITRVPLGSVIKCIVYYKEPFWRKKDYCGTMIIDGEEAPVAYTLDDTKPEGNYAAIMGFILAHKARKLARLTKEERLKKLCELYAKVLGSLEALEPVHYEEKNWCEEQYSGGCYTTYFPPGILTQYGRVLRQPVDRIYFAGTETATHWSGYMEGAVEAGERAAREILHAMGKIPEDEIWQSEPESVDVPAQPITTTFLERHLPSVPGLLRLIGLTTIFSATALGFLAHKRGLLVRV
The experiment can be described thus: Fluorometric kynuramine deamination assay, MAO-B inhibition (IC50). The conditions noted are these: for IC50: kynuramine 50 μM, mean ± SD of triplicate, read-out: Monoamine oxidase-B IC50; for Index MAO-A/B: ratio of IC50 MAO-A / IC50 MAO-B. On the procedure:
as §1, §2

Experiment [3] has as its target T2, recombinant human MAO-B. The experiment can be described thus: Equilibrium dialysis assay of enzyme-inhibitor complex, MAO-B. On the procedure:
(§3) Binding and inhibition of MAO-A and MAO-B with desmethoxyyangonin 6 were further examined by incubating the enzyme with high concentrations of the inhibitor followed by extensive dialysis of the enzyme-inhibitor complex and recovery of enzyme activities. MAO-A (0.05 mg/mL protein) was incubated with desmethoxyyangonin 6 (20 μM and 100.0 μM) and MAO-B (0.05 mg/mL protein) was incubated with desmethoxyyangonin 6 (1.50 μM and 20.0 μM) in an enzyme incubation mixture of 1 mL containing 100 mM potassium phosphate buffer (pH 7.4). Formation of enzyme-inhibitor complex was allowed by incubation of the reaction mixtures for 20 min at 37°C. The enzyme-inhibitor mixtures after incubation were chilled, transferred to the dialysis bags, and dialyzed against 25 mM potassium phosphate buffer (pH 7.4) for 14–16 hours at 4°C (changing the dialysis buffer three times). The enzyme catalytic activities were measured before and after dialysis.
(§4) The control enzymes without inhibitor were also run concurrently. […] The binding characteristics of desmethoxyyangonin 6 with MAO-A and MAO-B were examined by equilibrium dialysis to measure dissociation of the enzyme-inhibitor complex (Figure 6). MAO-A and MAO-B were incubated with high concentration of desmethoxyyangonin 6 for 20 minutes at 37°C to allow binding of inhibitor with the enzyme and formation of enzyme-inhibitor complex. The mixtures of enzyme-inhibitor complex were dialyzed overnight at 4°C against 25 mM KHPO4 (pH-7.4) buffer. The enzyme activities were examined before and after dialysis. Through overnight dialysis, the recombinant human MAO-A enzyme lost about 10–15% of activity. Incubation of MAO-A with 20.0 and 100 μM concentrations of desmethoxyyangonin 6 inhibited more than 65% of the enzyme activity (Figure 6). After the dialysis, more than 90% catalytic activity of MAO-A was recovered from enzyme-desmethoxyyangonin 6 incubation mixtures. Similarly, MAO-B lost about 10–15% of the enzyme activity during overnight dialysis.

The target in experiment [4] is T1, recombinant human MAO-A. Kind of experiment: Equilibrium dialysis assay of enzyme-inhibitor complex, MAO-A. How it is done:
as §3, §4

For experiment [5], the target named is T2, recombinant human MAO-B. The experiment can be described thus: Time-dependent enzyme inhibition assay, MAO-B. The conditions noted are these: 0.40 μM, preincubation 0-15 min. On the procedure:
(§5) MAO-A and MAO-B enzymes were preincubated for different time periods (0–15 min) with the inhibitor. […] Controls without inhibitors were also run simultaneously. The enzyme activities were determined as described above.
as §4

Experiment [6] concerns the target T2, recombinant human MAO-B. The experiment can be described thus: Enzyme kinetics and mechanism of inhibition of MAO-B. The conditions noted are these: for Type of Inhibition, Monoamine oxidase-B: Lineweaver-Burk / dialysis; for Selectivity / higher affinity for MAO-B than MAO-A (by Ki): from Ki values. How it is done:
(§6) Results are presented as double reciprocal Lineweaver-Burk plots. The kinetic data, namely, KM, Vmax, and Ki values, were calculated by SigmaPlot 12.3 with enzyme-kinetics module using Michaelis-Menten equation. The results were also analyzed for the type of inhibition.
(§7) To comprehend the type of inhibition, we examined 6 against both MAO-A and MAO-B at varying concentrations of kynuramine, a nonselective substrate. Desmethoxyyangonin 6 was tested at two concentrations: one above and the other below the IC50 value. For each experiment, three sets of assays were done at variable concentrations of the substrate: two concentrations of the inhibitor/compound and one control without inhibitors. The results are presented as double reciprocal Lineweaver-Burk plots and the kinetic data, namely, KM, Vmax, and Ki values, were computed by SigmaPlot 12.3 with enzyme-kinetics module using Michaelis-Menten equation (Table 2).

In experiment [7] the target is T1, recombinant human MAO-A. Kind of experiment: Enzyme kinetics and mechanism of inhibition of MAO-A. To be noted: Lineweaver-Burk / dialysis. How it is done: as §6, §7
For experiment [8], the target named is T1, recombinant human MAO-A. The experiment can be described thus: Time-dependent enzyme inhibition assay, MAO-A. The conditions noted are these: 7.50 μM, preincubation 0-15 min. On the procedure:
as §5, §4

Where [9] appears, read: kynuramine 80 μM, mean ± SD of triplicate, read-out: Monoamine oxidase-A IC50.
Setting [10] is: equilibrium dialysis dissociation.

Where two headings read alike, the source gives them in different places.

Turning to `COc1cc(O)c2c(c1)O[C@H](c1ccccc1)CC2=O` [Pinostrobin, 1, pinostrobin], the 50% inhibitory concentration (IC50) on recombinant human MAO-A [1] (setting [9]) turned out to be 23.9 ± 1.35 µM. Also, at recombinant human MAO-B [2], the IC50 was 45.5 ± 4.31 µM and the “Index MAO-A/B” value was determined as 0.524.
Regarding `COc1ccc([C@@H]2CC(=O)c3c(O)cc(OC)cc3O2)cc1` [4′-Methyl ether sakuranetin, 2, naringenin 7,4′-dimethyl ether], the IC50 at recombinant human MAO-A [1] (setting [9]) was 31.4 ± 4.58 µM; at recombinant human MAO-B [2] it was greater than 100 µM.
Taken in the same sequence, the figures for `O[C@H](CCc1ccccc1)C[C@@H](O)CCc1ccccc1` [Yashabushidiol A, 5, 3,5-heptanediol-1,7-diphenyl] were greater than 100 µM and 35.38 ± 0.121 µM.
Taken in the same sequence, the figures for `COc1cc(O)c(C(=O)/C=C/c2ccccc2)c(O)c1` [Pinostrobin chalcone, 4, 2′,6′-dihydroxy-4′-methoxychalcone] were 6.33 ± 0.206 µM and 10 ± 3.24 µM.
Consider `COc1cc(/C=C/c2ccccc2)oc(=O)c1` [Desmethoxyyangonin, 6, desmethoxyyangonin], for which, at recombinant human MAO-B [3] (1.50 and 20.0 μM, 20 min at 37°C), the “Inhibition of MAO-B enzyme activity before dialysis” value is listed as “more than 90%”. Also, the “Recovery of MAO-B enzyme activity after dialysis” value at recombinant human MAO-B [3] (1.50 and 20.0 μM, overnight dialysis at 4°C) is “fully recovered”. For the same compound, the “Reversibility of MAO-B inhibition” value at recombinant human MAO-B [3] (setting [10]) is recorded as “reversible binding”. In addition, the “MAO inhibition in words” value at recombinant human MAO-A [1] (MAO-A and MAO-B inhibition assays) is “potent MAO inhibition”. Besides, the figures for the IC50 on recombinant human MAO-A [1] (setting [9]) and on recombinant human MAO-B [2] were 1.85 ± 0.086 µM and 0.123 µM, respectively. For the same compound, the “Inhibition of MAO-A enzyme activity before dialysis” value at recombinant human MAO-A [4] (20.0 and 100 μM, 20 min at 37°C) was “more than 65%”. Moreover, on recombinant human MAO-A [4] (20.0 and 100 μM, overnight dialysis at 4°C), the “Catalytic activity of MAO-A recovered after dialysis” value is listed as “more than 90%”. Also, the “Reversibility of MAO-A inhibition” value at recombinant human MAO-A [4] (setting [10]) is recorded as “reversible binding”. Moreover, the “Time dependence of MAO-B inhibition” value on recombinant human MAO-B [5] is listed as “not time-dependent”. The “Type of Inhibition, Monoamine oxidase-B” value was “Competitive/reversible” on recombinant human MAO-B [6] and “competitive” on recombinant human MAO-B [6] (listed as 6). Further, the “Selectivity / higher affinity for MAO-B than MAO-A (by Ki)” value is recorded as “about 30 fold” on recombinant human MAO-B [6] (listed as Compound 6) and 29 fold on recombinant human MAO-B [6] (listed as desmethoxyyangonin 6). Also, the entries for the “Type of Inhibition, Monoamine oxidase-A” value on recombinant human MAO-A [7] and at recombinant human MAO-A [7] (listed as desmethoxyyangonin 6) were “Mixed/reversible” and “mixed inhibitor”, respectively. For the same compound, the “Preferential inhibition of MAO-B than MAO-A (by IC50)” value on recombinant human MAO-B [2] (from IC50 values) was found to be 15 fold. On recombinant human MAO-A [8], the “Time dependence of MAO-A inhibition” value is reported as “not time-dependent”.
For `COc1cc(O)c2c(c1)O[C@H](c1ccc(O)cc1)CC2=O` [Sakuranetin, 3, naringenin 7-methyl ether], the IC50 on recombinant human MAO-A [1] was determined as 45.5 ± 5.71 µM. Also, at recombinant human MAO-B [2], the IC50 was 36.5 ± 6.63 µM and the “Index MAO-A/B” value was found to be 1.246.

Values taken from paper PMC5613693, “Interactions of Desmethoxyyangonin, a Secondary Metabolite from Renealmia alpinia, with Human Monoamine Oxidase-A and Oxidase-B” (Evidence-based Complementary and Alternative Medicine : eCAM, 2017).
